Test results from ChEMBL document CHEMBL1142499 (Bioorg Med Chem Lett, 2008).

What was measured:
[1] = biological target: 3',5'-cyclic-AMP phosphodiesterase 4A (Homo sapiens, UniProt P27815); assay: Intrinsic inhibition of GST-fused human PDE4A expressed in SF9 cells
[2] = test system: Blood; assay: Inhibition of LPS-induced TNFalpha production in human whole blood; format: functional, tissue-based
[3] = Half life in orally and iv dosed rat; format: ADME, organism-based; conditions: in vivo
[4] = Cmax in po dosed squirrel monkey assessed after first episode of emesis; format: ADME, organism-based, Saimiri sciureus; parameters: route oral; conditions: in vivo
[5] = test system: Ovis aries; assay: Inhibition of late-phase antigen-induced bronchoconstriction in ascaris-sensitive sheep at 0.5 mg/kg, iv daily for 4 days and antigen challenged after 2 hrs post dose on 4th day; format: functional
[6] = Bioavailability in orally and iv dosed Squirrel monkey; format: ADME, organism-based, Saimiri sciureus; conditions: in vivo, po
[7] = Half life in orally and iv dosed dog; format: ADME, organism-based, Canis lupus familiaris; conditions: in vivo
[8] = Bioavailability in orally and iv dosed dog; format: ADME, organism-based, Canis lupus familiaris; conditions: in vivo, po
[9] = Bioavailability in orally and iv dosed rat; format: ADME, organism-based; conditions: in vivo, po
[10] = Half life in orally and iv dosed Squirrel monkey; format: ADME, organism-based, Saimiri sciureus; conditions: in vivo
[11] = biological target: Voltage-gated inwardly rectifying potassium channel KCNH2 (Homo sapiens, UniProt Q12809)
[12] = test system: Cavia porcellus; assay: Inhibition of ovalbumin-induced bronchoconstriction in conscious guinea pig at 0.03 mg/kg, ip administered 30 mins before ovalbumin challenge; format: functional; conditions: route intraperitoneal
[13] = test system: Blood; assay: Inhibition of LPS-induced TNFalpha production in Squirrel monkey whole blood; format: functional, tissue-based; conditions: Saimiri sciureus
[14] = Ratio of emesis Cmax in Squirrel monkey at 2 mg/kg, po to IC50 for LPS-induced TNFalpha production in Squirrel monkey whole blood; format: functional, Saimiri sciureus
[15] = biological target: Cytochrome P450 2C9 (Homo sapiens, UniProt P11712); assay: Inhibition of CYP2C9; format: ADME
Cytochrome P450 2C9, sequence (P11712 whole entry): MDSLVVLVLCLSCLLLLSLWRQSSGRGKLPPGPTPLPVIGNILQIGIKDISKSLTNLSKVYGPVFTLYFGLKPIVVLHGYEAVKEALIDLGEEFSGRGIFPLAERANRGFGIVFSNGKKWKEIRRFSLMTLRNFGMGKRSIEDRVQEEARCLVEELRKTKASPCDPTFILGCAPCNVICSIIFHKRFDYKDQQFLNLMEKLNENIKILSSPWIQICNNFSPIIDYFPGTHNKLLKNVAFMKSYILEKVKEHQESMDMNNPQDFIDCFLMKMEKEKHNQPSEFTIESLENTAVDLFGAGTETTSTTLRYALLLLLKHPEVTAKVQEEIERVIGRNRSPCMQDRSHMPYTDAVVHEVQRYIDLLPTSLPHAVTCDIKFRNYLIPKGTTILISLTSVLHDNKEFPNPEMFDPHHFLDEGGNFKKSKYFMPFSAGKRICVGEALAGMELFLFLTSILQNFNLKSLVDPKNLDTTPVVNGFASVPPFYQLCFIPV

Voltage-gated inwardly rectifying potassium channel KCNH2, sequence (Q12809 whole entry): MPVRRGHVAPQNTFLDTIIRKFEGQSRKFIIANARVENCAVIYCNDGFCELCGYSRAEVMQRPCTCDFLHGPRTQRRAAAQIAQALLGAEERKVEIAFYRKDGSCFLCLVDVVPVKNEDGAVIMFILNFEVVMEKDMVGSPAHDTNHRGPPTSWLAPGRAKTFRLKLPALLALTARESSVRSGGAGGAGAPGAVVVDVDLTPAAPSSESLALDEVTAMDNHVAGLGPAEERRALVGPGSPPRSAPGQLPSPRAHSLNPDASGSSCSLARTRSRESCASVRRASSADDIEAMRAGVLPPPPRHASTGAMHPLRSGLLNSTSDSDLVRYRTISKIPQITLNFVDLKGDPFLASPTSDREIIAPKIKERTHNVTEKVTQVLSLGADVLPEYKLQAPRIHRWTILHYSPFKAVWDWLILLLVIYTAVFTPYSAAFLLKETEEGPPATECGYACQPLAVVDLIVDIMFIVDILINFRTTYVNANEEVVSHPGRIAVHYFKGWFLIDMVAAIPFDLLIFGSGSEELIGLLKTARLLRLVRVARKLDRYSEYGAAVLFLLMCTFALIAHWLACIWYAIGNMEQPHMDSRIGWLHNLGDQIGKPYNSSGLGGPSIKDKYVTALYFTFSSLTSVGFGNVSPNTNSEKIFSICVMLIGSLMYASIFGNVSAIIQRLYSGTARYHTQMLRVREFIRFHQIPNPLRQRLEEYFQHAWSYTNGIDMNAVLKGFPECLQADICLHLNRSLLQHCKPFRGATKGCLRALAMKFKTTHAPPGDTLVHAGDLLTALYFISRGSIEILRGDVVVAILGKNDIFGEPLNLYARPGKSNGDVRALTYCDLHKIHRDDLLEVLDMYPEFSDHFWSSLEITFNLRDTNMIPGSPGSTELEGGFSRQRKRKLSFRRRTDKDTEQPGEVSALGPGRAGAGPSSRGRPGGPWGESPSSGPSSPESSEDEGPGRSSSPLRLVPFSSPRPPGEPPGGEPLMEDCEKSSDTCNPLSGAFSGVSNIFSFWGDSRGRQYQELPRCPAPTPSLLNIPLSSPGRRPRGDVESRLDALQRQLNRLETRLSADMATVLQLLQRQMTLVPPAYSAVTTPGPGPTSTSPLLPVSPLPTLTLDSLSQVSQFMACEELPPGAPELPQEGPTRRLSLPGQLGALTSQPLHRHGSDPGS
3',5'-cyclic-AMP phosphodiesterase 4A, sequence (P27815 whole entry, the tested form may be a part): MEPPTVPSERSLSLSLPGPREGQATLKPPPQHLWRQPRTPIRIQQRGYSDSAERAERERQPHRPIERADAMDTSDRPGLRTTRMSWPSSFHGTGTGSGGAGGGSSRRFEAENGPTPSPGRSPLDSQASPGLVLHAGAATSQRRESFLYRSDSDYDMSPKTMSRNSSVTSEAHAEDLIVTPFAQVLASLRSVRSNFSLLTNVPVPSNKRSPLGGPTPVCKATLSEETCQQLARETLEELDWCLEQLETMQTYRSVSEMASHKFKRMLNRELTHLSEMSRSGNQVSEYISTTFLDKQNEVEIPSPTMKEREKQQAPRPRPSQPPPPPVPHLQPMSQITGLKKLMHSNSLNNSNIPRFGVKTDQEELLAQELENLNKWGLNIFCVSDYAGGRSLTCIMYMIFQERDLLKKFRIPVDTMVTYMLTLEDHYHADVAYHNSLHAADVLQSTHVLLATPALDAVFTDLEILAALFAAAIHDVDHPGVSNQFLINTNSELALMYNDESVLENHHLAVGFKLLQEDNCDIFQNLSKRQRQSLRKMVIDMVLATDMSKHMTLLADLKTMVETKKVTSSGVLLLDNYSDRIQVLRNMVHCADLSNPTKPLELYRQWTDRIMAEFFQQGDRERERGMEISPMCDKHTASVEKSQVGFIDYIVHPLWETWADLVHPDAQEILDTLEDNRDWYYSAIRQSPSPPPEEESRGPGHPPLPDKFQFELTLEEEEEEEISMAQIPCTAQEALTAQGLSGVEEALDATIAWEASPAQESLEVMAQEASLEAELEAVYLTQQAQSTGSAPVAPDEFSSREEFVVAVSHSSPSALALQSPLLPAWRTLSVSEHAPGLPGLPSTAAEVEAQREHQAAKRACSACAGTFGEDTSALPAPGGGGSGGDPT

Structure (SMILES) | IC50 [1] [nM] | IC50 [2] [nM] | IC50 [11] [nM] | further results
Cc1noc(/C(=C/c2cccc(-n3cc(C(=O)Nc4c(Cl)cncc4Cl)c(=O)c4cccnc43)c2)c2ccc(S(C)(=O)=O)cc2)n1 | 0.06 | 3 | – | –
Cc1noc(/C(=C/c2cccc(-c3cc(C(C)(C)S(C)(=O)=O)cc4cccnc34)c2)c2ccc(S(C)(=O)=O)cc2)n1 | – | – | – | half-life [3]: 4 h; Cmax [4]: 3 µM; inhibition in vivo at 0.5 mg/kg [5]: 92%; bioavailability [6]: 33%; half-life [7]: 5 h; bioavailability [8]: 55%; bioavailability [9]: 95%; half-life [10]: 4 h
CC(=O)c1ccc(-c2cccc(-n3cc(C(=O)NC(C)C)c(=O)c4cccnc43)c2)cc1 | 0.34 | 75 | – | –
CC(C)N(C)C(=O)c1cn(-c2cccc(Br)c2)c2ncccc2c1=O | > 1000 | – | – | –
CC(C)CNC(=O)c1cn(-c2cccc(Br)c2)c2ncccc2c1=O | 3.54 | 2100 | – | –
Cc1ccc2c(=O)c(C(=O)NC(C)C)cn(-c3cccc(Br)c3)c2n1 | > 1000 | – | – | –
CC(C)NC(=O)c1cn(-c2cccc(-c3ccc(S(C)(=O)=O)cc3)c2)c2ncccc2c1=O | 0.62 | 69 | 23000 | –
CC(C)NC(=O)c1cn(-c2ccccc2)c2ncccc2c1=O | 15.3 | 700 | 71500 | –
O=C(Nc1c(Cl)cncc1Cl)c1cn(-c2ccc(Cl)cc2)c2ncccc2c1=O | 0.45 | 180 | 198 | –
CC(=O)c1cccc(-c2cccc(-n3cc(C(=O)Nc4c(Cl)cncc4Cl)c(=O)c4cccnc43)c2)c1 | 0.17 | 5 | – | –
CSc1ccc(-c2cccc(-n3cc(C(=O)NC(C)C)c(=O)c4cccnc43)c2)cc1 | 0.75 | 650 | 960 | –

Further lines, with some results ahead:

IC50 [1] [nM] | IC50 [2] [nM] | Structure (SMILES) | IC50 [11] [nM] | further results
– | 160 | O=C(NC1CC1)c1cn(-c2cccc(-c3cccnc3)c2)c2ncccc2c1=O | – | –
66.5 | – | Cc1ccc(-n2cc(C(=O)NC(C)C)c(=O)c3cccnc32)cc1Br | – | –
– | 160 | O=C(NC1CC1)c1cn(-c2cccc(C#Cc3cccnc3)c2)c2ncccc2c1=O | 16700 | –
6.2 | 120 | CC(C)(O)c1ccc(-c2cccc(-n3cc(C(=O)NC4CC4)c(=O)c4cccnc43)c2)c[n+]1[O-] | 50100 | half-life [3]: 1.5 h; Cmax [4]: 3.7 µM; inhibition in vivo at 0.5 mg/kg [5]: 84%; bioavailability [6]: 33%; half-life [7]: 2 h; bioavailability [8]: 100%; inhibition in vivo at 0.03 mg/kg [12]: 69%; IC50 [13]: 7 nM; Ratio [14]: 530; bioavailability [9]: 87%; IC50 [15]: 59000 nM; half-life [10]: 4 h
– | 66 | CC(C)(O)c1ccc(-c2cccc(-n3cc(C(=O)NC4CC4)c(=O)c4cccnc43)c2)cn1 | – | half-life [3]: < 0.5 h
9.2 | 700 | CC(C)NC(=O)c1cn(-c2cccc(Br)c2)c2ncccc2c1=O | 31600 | –
1.54 | 840 | CCOc1cccc(-c2cccc(-n3cc(C(=O)NC(C)C)c(=O)c4cccnc43)c2)c1 | 2700 | –
– | 300 | CC(C)(O)c1ccc(C#Cc2cccc(-n3cc(C(=O)NC4CC4)c(=O)c4cccnc43)c2)c[n+]1[O-] | 89400 | –
6.7 | 180 | O=C(NC1CC1)c1cn(-c2cccc(C#Cc3ccc[n+]([O-])c3)c2)c2ncccc2c1=O [MK-0873] | – | half-life [3]: 2 h; Cmax [4]: 5.1 µM; inhibition in vivo at 0.5 mg/kg [5]: 84%; bioavailability [6]: 38%; half-life [7]: 2 h; bioavailability [8]: 100%; inhibition in vivo at 0.03 mg/kg [12]: 65%; IC50 [13]: 23 nM; bioavailability [9]: 98%; IC50 [15]: 41000 nM; half-life [10]: 5 h
– | 140 | CS(=O)(=O)c1ccc(-c2cccc(-n3cc(C(=O)NC4CC4)c(=O)c4cccnc43)c2)cn1 | 13600 | –
141 | – | NC(=O)c1cn(-c2cccc(Br)c2)c2ncccc2c1=O | > 94500 | –
0.37 | 470 | CC(=O)c1cccc(-c2cccc(-n3cc(C(=O)NC(C)C)c(=O)c4cccnc43)c2)c1 | 6960 | –
– | 670 | O=C(NC1CC1)c1cn(-c2cccc(-c3ccncc3)c2)c2ncccc2c1=O | 18600 | –
